Assay results taken from BigSolDB 2.1.

Cc1ccc[n+](CCCC[n+]2cccc(C)c2)c1.F[P-](F)(F)(F)(F)F.F[P-](F)(F)(F)(F)F
solubility (mole fraction)
Settings | 288.15 K | 293.15 K | 298.15 K | 303.15 K | 308.15 K | 313.15 K | 318.15 K | 323.15 K | 328.15 K | 333.15 K
in 2-butanone | 0.00289 | 0.00328 | 0.00379 | 0.00439 | 0.00496 | 0.00556 | 0.00623 | 0.00706 | 0.00771 | 0.00856
in acetophenone | – | – | 0.000748 | 0.00103 | 0.00138 | 0.00183 | 0.0024 | 0.00311 | 0.00428 | 0.00556
in acetylacetone | 0.00119 | 0.00157 | 0.00214 | 0.00282 | 0.00368 | 0.00462 | 0.00598 | 0.00807 | 0.0101 | 0.0136
in cyclohexanone | 0.000205 | 0.000333 | 0.00051 | 0.000746 | 0.000967 | 0.00121 | 0.00146 | 0.00164 | 0.0018 | 0.00186
in water | 2e-06 | 3e-06 | 5e-06 | 8e-06 | 1.4e-05 | 2.4e-05 | 3.9e-05 | 6.3e-05 | 9.8e-05 | 0.000157
